{
  "source": "patent US20180355369A1",
  "about": "“Method for Increasing Plant Stress Tolerance and Seed Dormancy” (The Australian National University, priority 2015, published 2018)",
  "key": {"[1]": {"assay": "Accumulation of PAP analogues in leaves post-spraying", "format": "in vivo, Arabidopsis thaliana", "conditions": "foliar spray 100 mM, soil-grown wild type plants; 1 hr, 4 hr, 1 d, 4 d", "protocol": "Five week-old soil-grown wild type Arabidopsis plants were sprayed using a Studio Series IS-875 with a 0.5 mm nozzle opening (Iwata). Each plant was sprayed with approximately 100 μl of different PAP analogues (100 mM) or mock buffer (1% DMSO) and then returned to standard growth conditions. 100 mg leaf tissue was harvested and snap-frozen in liquid nitrogen at various timepoints post-spraying (1 hr, 4 hr, 1 d and 4 d). Total adenosines were extracted, derivatized and quantified by HPLC. Identification and quantification of Analogues 8, 12 and 13 were performed by comparison to authentic standards. Triplicate treatments were carried out, and data presented as mean+/−standard deviation."}, "stomata": {"test_system": "stomata", "assay": "Stomatal aperture in epidermal leaf peels", "format": "cell-based, Arabidopsis", "conditions": "for stomatal closure response to exogenous PAP with co-treatment: LiCl (SAL1 inhibitor) or ATP (PAP antiporter co-substrate) with PAP; for effect of inhibitor on ABA-induced stomatal closure: epidermal peels treated with ABA plus inhibitor", "protocol": "(§1) Five- to six-week-old plants were used to prepare epidermal peels. ABA at a concentration of 20 μM in water was root fed to hydroponically grown plants or sprayed onto leaves using a Studio Series IS-875 with a 0.5 mm nozzle opening (Iwata). We investigated if PAP accumulation in the double mutants could affect the production of NO during ABA-induced stomatal closure by treating epidermal peels with the inhibitor of NO synthase N(G)-methyl-L-arginine (NMA). For the investigation of the effect of different chemicals on stomatal closure, 20 μM ABA (Sigma-Aldrich), 100 mM LiCl, or 1 mM ATP, 1 mM or 100 μM PAP (Sigma-Aldrich) alone or in different combinations were prepared in infiltration buffer (1 mM PIPES KOH pH 6.0, 1 mM Sodium citrate, 1 mM KCl, 15 mM Sucrose) modified from a cordycepin infiltration buffer.\nMeasurements of stomatal aperture were performed with epidermal strips taken from five- to six-week-old plants. Fully developed leaves were cut and placed with their adaxial side onto cello tape. The vein was removed by razor blade and the abaxial epidermis was subsequently peeled off by using another strip of cello tape. To promote stomatal opening, the peels left adhered to the Scotch (810D Magic Tape, ¾ inch, 3M) were placed in petri dishes filled with stomatal opening solution (10 mM MES, 5 mM KCl, 50 μM CaCl2, pH 6.5) and incubated for 2 h at 22° C. under 150-200 μmol photons m^−2 s^−1 of light. Once the stomata were fully open, strips were maintained in the opening buffer or treated with various compounds according to the experiment. After treatment, photographs of stomata were taken using Leica microscope (Leica Microsystems, Wetzlar, Germany) at 20×. Stomatal aperture was measured using the image-processing software ImageJ. For stomatal aperture measurements, the ratio of stomatal pore width and length was used instead of width as this normalizes the pores of stomata of different size. Small stomata with a stomatal pore length of less than 7.5 μm were discarded. For each data point, 90 stomata were measured in 3 independent experiments. In each experiment, 10 stomata were measured in 3 epidermal strips per sample per treatment.\nMeasurements of stomatal closure in response to ABA, PAP, cordycepin and ATP treatments were performed on epidermal strips from Arabidopsis and barley plants grown under specific conditions. Plants were grown under high humidity (approximately 80% RH) and 12 h/12 h and 22/20° C. light/dark cycle in a growth chamber. Epidermal peels of newly expanding true leaves of three to four-week old plants. Stomatal apertures were measured in epidermal peels of newly expanded leaves. Peels were taken from the abaxial leaf surface and were fixed to the glass bottom of the experimental chamber after coating the chamber surface with an optically clear and pressure-sensitive silicon adhesive (Factor II, Tucson, USA). The attached epidermal peel is subsequently immersed in an opening buffer (OB: 50 mM KCl, 5 mM MES titrated to pH 6.1 with NaOH) and incubated, at plant growth conditions, for approximately 2 h. Stomatal images were taken using a bright-field microscope capable of 400× magnification for 10 minutes in OB and subsequently in Measuring Buffer [MB: 10 mM KCl, 5 mM MES titrated to pH 6.1 with Ca(OH)2] or PAP or cordycepin or ABA (dissolved in MB) for another 50 min. In total this was a 60 minute time course and images of the epidermal section were taken every 5 minutes using NIS Elements software (Nikon, Japan). Stomata aperture width and length were measured using Image J (NIH, USA). The pore area of each stomate was calculated using these values under the assumption that the area of a stomatal pore was that of an ellipse. Data are expressed as percentage over the control."}, "AtSAL1": {"molecular_target": "T1, AtSAL1 (Arabidopsis thaliana, UniProt Q42546)", "T1 construct": "Ubiquitin fusion partner (pHUE vector) (cleaved yes); made in house; host or cells: Escherichia coli BL21 DE3", "T1 sequence (Q42546 1-353)": "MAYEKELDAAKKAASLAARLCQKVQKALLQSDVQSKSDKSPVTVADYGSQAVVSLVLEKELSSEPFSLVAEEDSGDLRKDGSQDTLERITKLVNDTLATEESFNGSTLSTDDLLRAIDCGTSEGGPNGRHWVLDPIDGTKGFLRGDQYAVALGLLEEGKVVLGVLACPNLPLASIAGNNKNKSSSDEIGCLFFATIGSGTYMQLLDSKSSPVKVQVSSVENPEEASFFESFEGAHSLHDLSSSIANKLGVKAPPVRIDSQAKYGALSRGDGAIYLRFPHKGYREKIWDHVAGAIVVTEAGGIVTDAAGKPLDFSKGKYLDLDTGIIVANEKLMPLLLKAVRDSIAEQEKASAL", "assay": "Inhibition of in vitro AtSAL1 activity against PAP", "format": "biochemical", "conditions": "against 50 μM PAP, Analogue 12 at 0, 3.35, 13.4 or 50 μM", "protocol": "For estimation of inhibition of AtSAL1 activity by PAP analogue 12, 200 ng of purified recombinant SAL1 protein was incubated in 75 μl 2×activity buffer (200 mM Tris-MES pH 7.5, 2 mM Mg acetate) and Analogue 12 at a concentration of 0, 3.35, 13.4 or 50 μM for 1 hour at room temperature. The samples were then placed on ice, and 75 μl PAP added for a final reaction condition of 100 mM Tris-MES pH 7.5, 1 mM Mg acetate and 50 μM PAP. The reaction was allowed to proceed at 25 degrees Celsius for 5 minutes, then stopped by flash freezing in liquid nitrogen. The AMP formed from degradation of PAP by SAL1 was quantified by derivatization and resolving on HPLC. Duplicate treatments were carried out, and data presented as mean+/−standard error."}, "[2]": {"assay": "PAP accumulation in leaves after petiole feeding", "format": "in vivo, Arabidopsis", "conditions": "petiole feeding of PAP for 1 h, alone or co-applied with LiCl or ATP", "protocol": "as §1\n(§2) Total adenosines were extracted with 0.1 M HCl, derivatization with chloroacetaldehyde and quantified fluorometrically after HPLC fractionation. 3′-phosphoadenosine 5′-phosphate (PAP) quantification was performed by integrating the HPLC peak area and converting these to pmol units using standard curves of 1, 5 and 10 pmol standard."}, "guard cells": {"test_system": "guard cells", "assay": "ROS accumulation in guard cells of epidermal peels", "format": "cell-based, Arabidopsis", "conditions": "wild type, ost1-2 and ost1-2 alx8", "protocol": "The ABA- and PAP-induced accumulation of ROS in guard cells of epidermal peels was measured using dichlorofluorescein diacetate (H2DCFDA, Invitrogen). After 2 h of incubation in OB, the epidermal peel was incubated with 20 μM dye dissolved in DMSO and MB for 30 min, and then rinsed with MB three times. Epidermal peels were incubated in ABA or PAP dissolved in MB (or MB only as a negative control) for 10 min. Fluorescence images were taken using a Leica inverted confocal microscope controlled by the LAS AF software (Leica Microsystems, Germany). We used the 496-nm excitation line of an argon multiline laser. H2DCFDA fluorescence emission was detected at 505 to 525 nm. Chloroplast fluorescence was detected at 680 to 700 nm in order to separate the autofluorescence of chlorophyll in guard cells. Images were quantified with Image J software (National Institutes of Health, USA). The background signal was measured from the empty region of the similar size and subtracted from the stomata signal to obtain corrected total stomatal fluorescence values. Each stomate was considered to represent a single biological unit and thus fluorescence values were averaged across all stomata at each time point for each treatment. At least three biological replicates were measured for each treatment."}, "[3]": {"assay": "PAP quantification in leaves after exogenous ABA", "format": "in vivo, Arabidopsis", "conditions": "wild type leaves", "protocol": "as §1, §2"}},
  "note": "*1 amine or outer side, *2 acyl side, *3 side chain or, on linkers, in order; H or OH if unused. Where a SMILES comes first, the peptide text is derived from it. Bridges are numbered along the chain shown (N, C = ends). Roman numbers before positions name the chains, in order. [ ]: non-standard residue; d: D form. Actinocin(9to1) = Cc1c2oc3c(C)ccc(C(=O)[*:1])c3nc-2c(C(=O)[*:2])c(N)c1=O; NMeV = CN[C@H](C(=O)O)C(C)C; Sar = CNCC(=O)O",
  "data": [
    {"molecule": "CCNC(=O)C1OC(n2cnc3c(N)ncnc32)C(O)C1O", "note": "(stereo not shown) [Analogue 8, 5-(6-amino-9H-purin-9-yl)-N-ethyl-3,4-dihydroxytetrahydro-2-furancarboxamide]", "values": [
      {"measurement": "accumulation of PAP analogue in leaf tissue after spraying", "setting": "[1]", "value": "showed rapid accumulation of PAP analogues to levels comparable with those for PAP found in leaf tissue in vivo"}
    ]},
    {"molecule": "Nc1ncnc2c1ncn2[C@@H]1O[C@H](CO)C[C@H]1O", "note": "[Analogue 16, 3′-deoxyadenosine]", "values": [
      {"measurement": "stomatal closure in leaf peels", "setting": "stomata; leaf peels of wild type plants, 1 hr, PAP 100 μM, ABA 100 μM, cordycepin 10 μM", "value": "elicited rapid stomatal closure similar to the PAP response"}
    ]},
    {"molecule": "Nc1ncnc2c1nc(S)n2C1OC(CO)C(O)C1O", "note": "(stereo not shown) [Analogue 12, 2-(6-amino-8-mercapto-9H-purin-9-yl)-5-(hydroxymethyl) tetrahydro-3,4-furandiol]", "values": [
      {"measurement": "inhibition of in vitro SAL1 activity", "setting": "AtSAL1", "value": "inhibition of in vitro SAL1 activity"},
      {"measurement": "inhibition of in vitro SAL1 activity", "setting": "AtSAL1; listed as analogue 12", "value": "found to inhibit in vitro SAL1 activity"},
      {"measurement": "accumulation of PAP analogue in leaf tissue after spraying", "setting": "[1]", "value": "showed rapid accumulation of PAP analogues to levels comparable with those for PAP found in leaf tissue in vivo"}
    ]},
    {"molecule": "[Cl-].[Li+]", "note": "[LiCl]", "values": [
      {"measurement": "stomatal closure response to exogenous PAP with co-treatment", "setting": "stomata", "value": "a stronger, cumulative response was achieved"},
      {"measurement": "accumulation of PAP in leaves", "setting": "[2]", "value": "significantly enhanced"}
    ]},
    {"molecule": "Cc1c2oc3c(C)ccc(C(=O)N[C@@H]4C(=O)N[C@H](C(C)C)C(=O)N5CCC[C@H]5C(=O)N(C)CC(=O)N(C)[C@@H](C(C)C)C(=O)O[C@@H]4C)c3nc-2c(C(=O)N[C@@H]2C(=O)N[C@H](C(C)C)C(=O)N3CCC[C@H]3C(=O)N(C)CC(=O)N(C)[C@@H](C(C)C)C(=O)O[C@@H]2C)c(N)c1=O", "note": "[actinomycin D] (I: T[dV]P[Sar][NMeV] / II: T[dV]P[Sar][NMeV]; ester I:1-I:C, II:1-II:C; linker I:N-II:N via Actinocin(9to1))", "values": [
      {"measurement": "effect of inhibitor on ABA-induced stomatal closure", "setting": "stomata", "value": "suppressed ABA-mediated closure to a lesser extent in ost1-2 alx8 than in the wild type"}
    ]},
    {"molecule": "COC(=O)C1OC(n2cnc3c(N)ncnc32)C(O)C1O", "note": "(stereo not shown) [Analogue 13, methyl 5-(6-amino-9H-purin-9-yl)-3,4-dihydroxytetrahydro-2-furancarboxylate]", "values": [
      {"measurement": "accumulation of PAP analogue in leaf tissue after spraying", "setting": "[1]", "value": "showed rapid accumulation of PAP analogues to levels comparable with those for PAP found in leaf tissue in vivo"}
    ]},
    {"molecule": "CNC(=N)NCCC[C@H](N)C(=O)O", "note": "[NMA, N(G)-methyl-L-arginine]", "values": [
      {"measurement": "effect of inhibitor on ABA-induced stomatal closure", "setting": "stomata", "value": "reduced ABA-induced stomatal closure in Col-0Ler"}
    ]},
    {"molecule": "CC1=CC(=O)CC(C)(C)C1(O)/C=C/C(C)=C\\C(=O)O", "note": "(stereo not shown) [ABA]", "values": [
      {"measurement": "time to ABA-induced stomatal closure", "setting": "stomata; epidermal peels, FIGS. 5B and 5D", "value": "< 10", "unit": "min"},
      {"measurement": "ROS burst in guard cells", "setting": "guard cells", "value": "ROS burst known to stimulate stomatal closure was observed in response to ABA treatment in wild type"},
      {"measurement": "PAP accumulation stimulated by exogenous ABA", "setting": "[3]", "value": "stimulates PAP accumulation by four fold"}
    ]},
    {"molecule": "Nc1ncnc2c1ncn2[C@@H]1O[C@H](COP(=O)(O)OP(=O)(O)OP(=O)(O)O)[C@@H](O)[C@H]1O", "note": "[ATP]", "values": [
      {"measurement": "stomatal closure response to exogenous PAP with co-treatment", "setting": "stomata", "value": "a stronger, cumulative response was achieved"},
      {"measurement": "accumulation of PAP in leaves", "setting": "[2]", "value": "significantly enhanced"}
    ]},
    {"molecule": "Arabidopsis thaliana SAL1, mature recombinant protein (transit peptide excluded) (protein) MAYEKELDAAKKAASLAARLCQKVQKALLQSDVQSKSDKSPVTVADYGSQAVVSLVLEKELSSEPFSLVAEEDSGDLRKDGSQDTLERITKLVNDTLATEESFNGSTLSTDDLLRAIDCGTSEGGPNGRHWVLDPIDGTKGFLRGDQYAVALGLLEEGKVVLGVLACPNLPLASIAGNNKNKSSSDEIGCLFFATIGSGTYMQLLDSKSSPVKVQVSSVENPEEASFFESFEGAHSLHDLSSSIANKLGVKAPPVRIDSQAKYGALSRGDGAIYLRFPHKGYREKIWDHVAGAIVVTEAGGIVTDAAGKPLDFSKGKYLDLDTGIIVANEKLMPLLLKAVRDSIAEQEKASAL", "values": [
      {"measurement": "kcat (enzyme activity against PAP)", "value": "up to 6-fold decrease in kcat for the oxidized dimeric rSAL1"}
    ]}
  ]
}
